Source: article PMC5555576, “Selective small-chemical inhibitors of protein arginine methyltransferase 5 with anti-lung cancer activity” (PLoS ONE, 2017)

Columns and labels:
PRMT5 = biological target: T1, PRMT5 (Homo sapiens, UniProt O14744); test: Steady-state kinetic analysis of PRMT5 inhibition (time-dependent inhibition assay); assay type: biochemical
T1 construct: His6; made in house; host or cells: E. coli BL21(ED3) [sic]
Experimental: Different amounts of compound C2 or C5 were present in the final methylation reaction mixtures with 1.2 μg of PRMT5, 5 μM AdoMet, 2 μCi of H^3-AdoMet and various concentrations of SmD3. After a 10-, 20- or 30-min incubation at 30 °C or no incubation, the reaction mixtures were spread onto DE81 chromatography paper discs and the amounts of methylated products were quantified by liquid scintillation. Amounts (counts per minute [cpm]) of methylated products and incubation time (minutes) were plotted and reaction velocity (cpm per minute) was deduced.
To understand the mechanism of inhibition of identified compounds, we analyzed the kinetic pattern of inhibition using steady-state enzymatic measurements. The velocities of PRMT5 methylation of SmD3 were measured at several selected concentrations of compounds C2 and C5 over a range of SmD3 concentrations. Plotted in the double-reciprocal format with 1/velocity versus 1/[SmD3]
Fig 5 Steady-state kinetic analysis of PRMT5 inhibition by compounds C2 and C5. Double-reciprocal plot of reaction velocities (cpm per minute) versus concentrations of SmD3. Methylation reaction mixtures contained various concentrations of C2 (left) or C5 (right), various concentrations of SmD3, 1.2 μg of PRMT5 and 5 μM AdoMet. The mixtures were incubated for different times and the amounts of methylated products were quantified using DE81 paper and liquid scintillation. Reaction velocity was calculated as H^3 incorporation (cpm) into SmD3 per minute.

[1] = Toxicity observed after intraperitoneal injection; assay type: in vivo, BALB/c mice; details: 100 mg/kg
Experimental: The obtained 3 compounds (C5, C9, and C11) have characteristics of Lipinski’s rule-of-five, which defines four physicochemical parameters found in a set of active drugs which made them into phase II clinical trials. We chose one compound (C9) to analyze its pharmacokinetic parameters in the mouse. BALB/c mice were randomized and administrated compound C9 (dissolved in 5% DMSO and 0.5% Tween 80) at dosages of 25, 50 and 100 mg/kg by intraperitoneal (I.P.) injection. Mice were sacrificed and blood samples were collected at different time points after administration of compounds. The compound concentrations in plasma samples were measured (S1 Fig). […] However, we observed the high toxicity of the compound in the mouse at the dosage of 100 mg/kg.

[2] = test system: A549 lung tumor xenografts; test: Orthotopic lung tumor xenograft model; assay type: in vivo, nude mice; details: 100 mg/kg oral gavage daily
Experimental: Six-week old nude mice were purchased from the National Cancer Institute and maintained in a barred animal facility. Cell injection into the mouse lung was performed as described previously. Mice were treated with vehicle [0.1 ml, 0.5% (w/v) carboxymethycellulose plus 0.5% Tween 80] by oral gavage or the compound dissolved in the vehicle (0.1 ml, 100 mg/kg) for 21 days. The lungs of the mice were then removed, fixed with formaldehyde and embedded in paraffin. Paraffin-embedded lung tissue sections (4 μm) were stained with H&E and evaluated for tumors. The tumor areas in lungs were quantified using the ImageJ software program (NIH).
We used the orthotopic lung tumor model to determine effects of the compound C9a on growth of lung cancer xenografts. A549 cells were injected into the lung of nude mouse as previously reported by us. Mice were randomized and divided into two groups: (a) control mice (n = 5): administration of the vehicle [0.5% (w/v) carboxymethycellulose plus 0.5% Tween 80] by oral gavage daily; (b) treated mice (n = 10): administration of the compound C9a in the vehicle at the dosage of 100 mg/kg by oral gavage daily. […]
Fig 9 The compound C9a inhibited growth of lung tumor xenografts in nude mice. […] Histones were isolated from tumors and analyzed by SDS-PAGE stained with Commassie blue R250 (bottom) or by Western blot with anti-symmetric dimethyl arginine antibody (SYM10) (top).

[3] = test system: histone H2A arginine methylation in lung tumor xenografts; test: Western blot of histone symmetric dimethylarginine in lung tumors; assay type: in vivo, nude mice; details: 100 mg/kg oral, 21 days, SYM10 antibody
Experimental: Histones were purified as reported previously. Briefly, cells (1–5 x 10^6) or lung tumors (10–100 mg) were lysated using a glass dounce in 1 ml of 1x Passive Lysis Buffer (Promega) and nuclear pellets were collected by centrifugation at 3,000 rpm for 5 min at 4 °C. The supernatant was discard and the pellets were washed with 1 ml of 1x Passive Lysis Buffer. Nuclear pellets were resuspended in 0.4 ml of the buffer (10 mM Trs-HCl, pH7.9, 0.2 mM EDTA, 1 mM DTT, 20% glycerol, 0.42 M KCl) and incubate for 30 min on ice, and centrifuged at 12,000 rpm for 10 min at 4 °C. The supernatant (histones extract) was transferred to a new tube and histones were precipitated by 20% trichloroacetic acid.
Protein extracts or histones (20 μg) were subjected to 10% or 15% sodium dodecyl sulfate-polyacrylamide gel electrophoresis, respectively then transferred to Immobilon-P membranes (Millipore). […] Immunoreactive proteins were detected using an enhanced chemiluminescence detection system (GE Healthcare) per the manufacturer’s instructions. Protein concentrations were determined using the Bradford protein assay reagent (Bio-Rad).
Fig 9 The compound C9a inhibited growth of lung tumor xenografts in nude mice. […] Histones were isolated from tumors and analyzed by SDS-PAGE stained with Commassie blue R250 (bottom) or by Western blot with anti-symmetric dimethyl arginine antibody (SYM10) (top). […]

T1 sequence (O14744 whole entry): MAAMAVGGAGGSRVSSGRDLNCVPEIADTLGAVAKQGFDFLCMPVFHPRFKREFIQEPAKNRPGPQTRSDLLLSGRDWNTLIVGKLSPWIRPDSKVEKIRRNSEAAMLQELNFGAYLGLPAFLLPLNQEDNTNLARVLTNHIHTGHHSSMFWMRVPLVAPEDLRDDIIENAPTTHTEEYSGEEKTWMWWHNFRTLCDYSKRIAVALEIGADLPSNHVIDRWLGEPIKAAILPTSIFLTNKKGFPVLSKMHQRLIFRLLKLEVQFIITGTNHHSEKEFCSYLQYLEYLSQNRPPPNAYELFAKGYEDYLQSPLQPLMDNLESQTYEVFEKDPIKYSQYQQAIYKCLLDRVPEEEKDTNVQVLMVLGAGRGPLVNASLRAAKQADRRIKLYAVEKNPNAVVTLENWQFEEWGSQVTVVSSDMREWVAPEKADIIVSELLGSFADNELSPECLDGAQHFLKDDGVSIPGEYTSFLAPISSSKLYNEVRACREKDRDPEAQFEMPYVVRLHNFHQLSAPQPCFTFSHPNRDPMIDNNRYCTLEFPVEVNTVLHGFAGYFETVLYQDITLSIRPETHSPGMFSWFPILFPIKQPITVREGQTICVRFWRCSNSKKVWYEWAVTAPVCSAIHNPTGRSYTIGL

In the case of `CCn1c(=O)[nH]c2cc(C(=O)Nc3ccc(OC)cc3)ccc2c1=O` [Compound C5], the “mode of inhibition with regard to SAM” value (PRMT5) is reported as “not competitive inhibitors” and the “mode of inhibition with regard to the SmD3 substrate” value (PRMT5; double-reciprocal plot) is reported as “competitive inhibitors”.
With `COc1ccc(Nc2ncnc3c2cnn3Cc2ccc(C)cc2)cc1` [Compound C9] the “toxicity in the mouse” value [1] was “high toxicity”.
For `Nc1cccc(Nc2ncnc3c2cnn3Cc2ccccc2)c1` [Compound C9a], the “average tumor size (tumor area mean) in control mice relative to treated mice” value ([2]; 3 weeks) was 7.2 fold, the “effect on growth of mice (body weight)” value ([2]; 21 days) was “retarded growth of mice” and the “arginine methylation in histone H2A in lung tumors” value [3] was “significantly inhibited”.
